# Values quoted from earlier work, collected in publication PMC8348686, “The Pharmacological Profile of Second Generation Pyrovalerone Cathinones and Related Cathinone Derivative” (International Journal of Molecular Sciences, 2021).
# What was measured:
# [1] = target: T1, h5-HT2B receptor (Homo sapiens, UniProt P41595); set-up: method as in Rickli et al. (2015); conditions: read-out: h5-HT2B Activation Potency EC50 ± SD; ref Rickli et al. (2015); cited from earlier work
# T1 construct: expressed in transfected cells; host or cells: HEK293
# [2] = target: h5-HT2A receptor (Homo sapiens, UniProt P28223); set-up: expressed in transfected cells; host or cells: HEK293 cell preparations; conditions: read-out: h5-HT2A Receptor Binding Ki ± SD; [3H]-Ketanserin; ref Rickli et al. (2015); cited from earlier work
# Chain of h5-HT2A receptor (P28223 whole entry): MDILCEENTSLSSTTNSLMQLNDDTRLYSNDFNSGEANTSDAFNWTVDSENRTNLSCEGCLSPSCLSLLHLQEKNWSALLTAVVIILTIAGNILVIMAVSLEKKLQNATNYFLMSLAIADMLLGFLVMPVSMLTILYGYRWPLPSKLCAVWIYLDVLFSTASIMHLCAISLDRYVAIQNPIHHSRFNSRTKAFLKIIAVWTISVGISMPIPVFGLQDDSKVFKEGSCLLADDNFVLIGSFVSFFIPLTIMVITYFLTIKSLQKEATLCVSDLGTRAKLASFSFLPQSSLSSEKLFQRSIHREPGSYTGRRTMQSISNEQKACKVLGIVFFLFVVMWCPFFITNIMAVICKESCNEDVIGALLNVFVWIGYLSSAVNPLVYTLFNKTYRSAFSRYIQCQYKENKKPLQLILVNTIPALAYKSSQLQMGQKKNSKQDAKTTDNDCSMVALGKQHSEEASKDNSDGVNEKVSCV
# T1 sequence (P41595 whole entry): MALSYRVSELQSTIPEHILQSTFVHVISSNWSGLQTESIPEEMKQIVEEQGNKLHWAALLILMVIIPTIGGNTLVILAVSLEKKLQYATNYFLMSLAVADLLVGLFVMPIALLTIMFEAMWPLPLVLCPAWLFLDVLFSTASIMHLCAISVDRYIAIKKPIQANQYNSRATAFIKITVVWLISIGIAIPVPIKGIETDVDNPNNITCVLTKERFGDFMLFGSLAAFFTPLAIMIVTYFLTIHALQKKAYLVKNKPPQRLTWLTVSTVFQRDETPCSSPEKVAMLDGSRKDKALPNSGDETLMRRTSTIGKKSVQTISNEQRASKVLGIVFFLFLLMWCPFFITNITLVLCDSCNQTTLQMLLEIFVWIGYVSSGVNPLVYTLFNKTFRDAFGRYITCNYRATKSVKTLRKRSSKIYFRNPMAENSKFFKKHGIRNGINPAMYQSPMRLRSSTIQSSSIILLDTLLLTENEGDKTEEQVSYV
structure (smiles),measurement,setting,value
"CNC(C)Cc1ccc2c(c1)OCO2 (centres unmarked) [MDMA, 3,4-methylenedioxymethamphetamine, reference compound]",EC50,[1],> 20 µM
same,Ki,[2],6.3 ± 2.4 µM
